{"source": "paper PMC12320299", "about": "(Chemical Science, 2025)", "key": {"SW480 cancer cells": {"tested_on": "SW480 cancer cells", "assay": "Proteome profiling of compound-treated SW480 cancer cells (24 h, approx. IC50, CYT and NE fractions)", "type": "cell-based, human", "description": "To gain insight into potential modes of action and derive structure–activity relationships on a molecular level, proteomic profiling experiments were carried out based on label-free quantification (LFQ) by nano-liquid chromatography tandem mass spectrometry (nLC-MS/MS). […] Six replicates were used per condition. The perturbations were evaluated at subcellular resolution by fractionating cells into cytoplasmic (CYT) and nuclear (NE) protein fractions. Those have been separately proteolytically digested and analysed (Fig. 3A). The perturbations with the 3-Et-NQ and 3-Morph-NQ complexes were performed against their respective solvent-treated controls (CON), yielding a total of 72 samples. […] Statistical significance of individual protein regulations was calculated by multiple testing-corrected P-values based on 5% false discovery rate (FDR = 0.05 and S0 = 0.1).\nThe position of each group represents the summed fold-changes of the individual proteins in the group according to the subcellular space, i.e., CYT and NE fractions, while the size represents the number of proteins in each group. […]\nProteome profiling of compound-treated SW480 cancer cells […]\ncells per well and left to adhere in complete cell culture medium. After 24 h, the medium was exchanged with fresh complete medium (DMSO mock control) or fresh medium containing […]\nsolution in DMSO, respectively) and incubated for another 24 h. Each condition was carried out in hexuplicates. The cells were processed according to a nucleocytoplasmic fractionation protocol as previously described.3 All steps were performed on ice. The medium was removed, and the cells were washed twice with 1×PBS (phosphate buffered saline, 3 mL). Then, PBS was thoroughly removed. Isotonic lysis buffer (10 mM HEPES, 10 mM NaCl, 3.5 mM MgCl2, 1 mM EGTA, 0.25 M Sucrose, 0.5% Triton X-100) containing protease inhibitors (1% PMSF, Sigma, and 1% protease and phosphatase inhibitor cocktail, Roche) was added to the flasks, the cells were scraped off and transferred into labelled 15 mL Falcon tubes. The cellular membrane was ruptured using shear stress by pressing the cell suspension through a syringe 9–12 times. Membrane rupture with intact nuclei was monitored under a microscope. After centrifugation (960 g, 5 min), the supernatant containing the cytoplasmic (CYT) proteins was transferred into new tubes containing ice-cold ethanol (1 : 5, HPLC grade) and precipitated […]\novernight at –20 °C. The pellet containing the nuclei was incubated with a hypertonic solution (10 mM Tris-HCl, 1 mM EDTA and 0.5 M NaCl) and subsequently diluted 1:10 with NP-40 buffer (10 mm Tris-HCl, 1 mm EDTA and 0.5% Triton X-100) containing protease inhibitors (1% PMSF, Sigma, and 1% protease and phosphatase inhibitor cocktail, Roche). After centrifugation (960 g, 5 min), the soluble nuclear (NE) proteins were also transferred into new tubes containing ice-cold ethanol (1 : 5, HPLC grade) and precipitated overnight at –20 °C.\nThe precipitated proteins were finally pelleted by centrifugation (5000 g, 30 min, 4 °C), the solution was decanted and the pellet dried under vacuum."}, "[1]": {"assay": "Stability study by UV-Vis spectroscopy in PBS (1% DMSO)", "type": "physicochemical", "conditions": "40 μM 1a/2a, 80 μM 1b/2b", "description": "Stability Study by UV-Vis Spectroscopy\nAll four compounds were freshly diluted in PBS (1% DMSO) from a DMSO stock solution at […]\n80 µM. The stability of the compounds was monitored in a UV-Vis spectrophotometer (Perkin Elmer lambda 35 photometer) over 96 h by acquiring an UV-Vis spectrum every 30 mins. The percentage of the remaining intact compound was calculated by the ratio of the maximum absorbance of the tridentate complexes’ characteristic absorption band around 350– 370 nm after a given timepoint (A) compared to the one directly after dilution (A0). […]"}, "[2]": {"conditions": "cytoplasmic fraction, FDR = 0.05, S0 = 0.1"}, "[3]": {"conditions": "nuclear fraction, FDR = 0.05, S0 = 0.1"}}}
{"smiles": "Cc1ccc(C(C)C)cc1.O=C1C(CN2CCOCC2)=C2[O][Ru][O]C2(n2cccn2)c2ccccc21", "note": "(stereo not drawn) [Compound 1b]", "values": [{"measurement": "GO BP DNA damage response, summed fold-changes", "setting": "SW480 cancer cells; NE fraction", "value": 22.6}, {"measurement": "GO BP DNA repair, summed fold-changes", "setting": "SW480 cancer cells; NE fraction", "value": 35.2}, {"measurement": "GO BP DNA replication, summed fold-changes", "setting": "SW480 cancer cells; NE fraction", "value": 6.1}, {"measurement": "GO BP Intracellular protein transport, summed fold-changes", "setting": "SW480 cancer cells; NE fraction", "value": -31.2}, {"measurement": "GO BP Mitotic cytokinesis, summed fold-changes", "setting": "SW480 cancer cells; NE fraction", "value": 4.0}, {"measurement": "GO BP Negative regulation of DNA-templated transcription, summed fold-changes", "setting": "SW480 cancer cells; NE fraction", "value": 65.6}, {"measurement": "GO BP Nucleocytoplasmic transport, summed fold-changes", "setting": "SW480 cancer cells; NE fraction", "value": 26.1}, {"measurement": "GO BP Positive regulation of DNA-templated transcription, summed fold-changes", "setting": "SW480 cancer cells; NE fraction", "value": 71.8}, {"measurement": "GO BP Proteasome-mediated ubiquitin-dependent protein catabolic process, summed fold-changes", "setting": "SW480 cancer cells; NE fraction", "value": 26.0}, {"measurement": "GO BP Protein folding, summed fold-changes", "setting": "SW480 cancer cells; NE fraction", "value": -27.7}, {"measurement": "GO BP Protein stabilization, summed fold-changes", "setting": "SW480 cancer cells; NE fraction", "value": -4.7}, {"measurement": "GO BP Protein transport, summed fold-changes", "setting": "SW480 cancer cells; NE fraction", "value": -9.8}, {"measurement": "GO BP Purine nucleotide biosynthetic process, summed fold-changes", "setting": "SW480 cancer cells; NE fraction", "value": -7.4}, {"measurement": "GO BP RNA splicing, summed fold-changes", "setting": "SW480 cancer cells; NE fraction", "value": 29.0}, {"measurement": "GO BP Regulation of apoptotic process, summed fold-changes", "setting": "SW480 cancer cells; NE fraction", "value": 4.6}, {"measurement": "GO BP Regulation of cell fate specification, summed fold-changes", "setting": "SW480 cancer cells; NE fraction", "value": 10.8}, {"measurement": "GO BP Regulation of double-strand break repair, summed fold-changes", "setting": "SW480 cancer cells; NE fraction", "value": 14.0}, {"measurement": "GO BP Regulation of stem cell differentiation, summed fold-changes", "setting": "SW480 cancer cells; NE fraction", "value": 12.8}, {"measurement": "GO BP Response to oxidative stress, summed fold-changes", "setting": "SW480 cancer cells; NE fraction", "value": -22.0}, {"measurement": "GO BP Ribosomal small subunit biogenesis, summed fold-changes", "setting": "SW480 cancer cells; NE fraction", "value": 25.3}, {"measurement": "GO BP Ribosome biogenesis, summed fold-changes", "setting": "SW480 cancer cells; NE fraction", "value": 6.9}, {"measurement": "GO BP Ubiquitin-dependent protein catabolic process, summed fold-changes", "setting": "SW480 cancer cells; NE fraction", "value": 4.9}, {"measurement": "GO BP Vesicle-mediated transport, summed fold-changes", "setting": "SW480 cancer cells; NE fraction", "value": -26.9}, {"measurement": "GO BP mRNA processing, summed fold-changes", "setting": "SW480 cancer cells; NE fraction", "value": 25.4}, {"measurement": "GO BP mRNA splicing, via spliceosome, summed fold-changes", "setting": "SW480 cancer cells; NE fraction", "value": 37.9}, {"measurement": "GO BP mRNA transport, summed fold-changes", "setting": "SW480 cancer cells; NE fraction", "value": 17.5}, {"measurement": "GO BP rRNA processing, summed fold-changes", "setting": "SW480 cancer cells; NE fraction", "value": 40.4}, {"measurement": "GO CC Azurophil granule lumen, summed fold-changes", "setting": "SW480 cancer cells; NE fraction", "value": -24.9}, {"measurement": "GO CC Chromatin, summed fold-changes", "setting": "SW480 cancer cells; NE fraction", "value": 92.4}, {"measurement": "GO CC Chromosome, centromeric region, summed fold-changes", "setting": "SW480 cancer cells; NE fraction", "value": 9.3}, {"measurement": "GO CC Chromosome, summed fold-changes", "setting": "SW480 cancer cells; NE fraction", "value": 28.8}, {"measurement": "GO CC Chromosome, telomeric region, summed fold-changes", "setting": "SW480 cancer cells; NE fraction", "value": 30.4}, {"measurement": "GO CC Condensin complex, summed fold-changes", "setting": "SW480 cancer cells; NE fraction", "value": 1.4}, {"measurement": "GO CC Cytoskeleton, summed fold-changes", "setting": "SW480 cancer cells; NE fraction", "value": -23.7}, {"measurement": "GO CC Endosome, summed fold-changes", "setting": "SW480 cancer cells; NE fraction", "value": -21.5}, {"measurement": "GO CC Extracellular exosome, summed fold-changes", "setting": "SW480 cancer cells; NE fraction", "value": -325.4}, {"measurement": "GO CC Fibrillar center, summed fold-changes", "setting": "SW480 cancer cells; NE fraction", "value": 22.1}, {"measurement": "GO CC Ficolin-1-rich granule lumen, summed fold-changes", "setting": "SW480 cancer cells; NE fraction", "value": -29.3}, {"measurement": "GO CC Focal adhesion, summed fold-changes", "setting": "SW480 cancer cells; NE fraction", "value": -55.9}, {"measurement": "GO CC Intracellular membrane-bounded organelle, summed fold-changes", "setting": "SW480 cancer cells; NE fraction", "value": -21.7}, {"measurement": "GO CC Kinetochore, summed fold-changes", "setting": "SW480 cancer cells; NE fraction", "value": 23.6}, {"measurement": "GO CC Lipid droplet, summed fold-changes", "setting": "SW480 cancer cells; NE fraction", "value": -14.4}, {"measurement": "GO CC Lysosome, summed fold-changes", "setting": "SW480 cancer cells; NE fraction", "value": -44.7}, {"measurement": "GO CC Microtubule cytoskeleton, summed fold-changes", "setting": "SW480 cancer cells; NE fraction", "value": -18.2}, {"measurement": "GO CC Mitochondrion, summed fold-changes", "setting": "SW480 cancer cells; NE fraction", "value": -134.2}, {"measurement": "GO CC Nuclear envelope, summed fold-changes", "setting": "SW480 cancer cells; NE fraction", "value": 21.5}, {"measurement": "GO CC Nuclear speck, summed fold-changes", "setting": "SW480 cancer cells; NE fraction", "value": 55.6}, {"measurement": "GO CC Nucleolus, summed fold-changes", "setting": "SW480 cancer cells; NE fraction", "value": 104.6}, {"measurement": "GO CC Nucleoplasm, summed fold-changes", "setting": "SW480 cancer cells; NE fraction", "value": 270.4}, {"measurement": "GO CC Nucleus, summed fold-changes", "setting": "SW480 cancer cells; NE fraction", "value": 135.2}, {"measurement": "GO CC Proteasome complex, summed fold-changes", "setting": "SW480 cancer cells; NE fraction", "value": 12.2}, {"measurement": "GO CC Protein-containing complex, summed fold-changes", "setting": "SW480 cancer cells; NE fraction", "value": -21.9}, {"measurement": "GO CC Ribonucleoprotein complex, summed fold-changes", "setting": "SW480 cancer cells; NE fraction", "value": 3.5}, {"measurement": "GO CC SCAR complex, summed fold-changes", "setting": "SW480 cancer cells; NE fraction", "value": -6.0}, {"measurement": "GO CC Small-subunit processome, summed fold-changes", "setting": "SW480 cancer cells; NE fraction", "value": 29.5}, {"measurement": "GO CC Spliceosomal complex, summed fold-changes", "setting": "SW480 cancer cells; NE fraction", "value": 22.0}, {"measurement": "GO CC Transcription repressor complex, summed fold-changes", "setting": "SW480 cancer cells; NE fraction", "value": 12.8}, {"measurement": "GO CC Vesicle, summed fold-changes", "setting": "SW480 cancer cells; NE fraction", "value": -24.1}, {"measurement": "KEGG pathway ATP-dependent chromatin remodeling, summed fold-changes", "setting": "SW480 cancer cells; NE fraction", "value": 35.8}, {"measurement": "KEGG pathway Apoptosis, summed fold-changes", "setting": "SW480 cancer cells; NE fraction", "value": -20.6}, {"measurement": "KEGG pathway Basal transcription factors, summed fold-changes", "setting": "SW480 cancer cells; NE fraction", "value": 10.6}, {"measurement": "KEGG pathway Biosynthesis of amino acids, summed fold-changes", "setting": "SW480 cancer cells; NE fraction", "value": -32.4}, {"measurement": "KEGG pathway Biosynthesis of cofactors, summed fold-changes", "setting": "SW480 cancer cells; NE fraction", "value": -31.7}, {"measurement": "KEGG pathway Cell cycle, summed fold-changes", "setting": "SW480 cancer cells; NE fraction", "value": 19.2}, {"measurement": "KEGG pathway Nucleocytoplasmic transport, summed fold-changes", "setting": "SW480 cancer cells; NE fraction", "value": 34.5}, {"measurement": "KEGG pathway Polycomb repressive complex, summed fold-changes", "setting": "SW480 cancer cells; NE fraction", "value": 17.0}, {"measurement": "KEGG pathway Proteasome, summed fold-changes", "setting": "SW480 cancer cells; NE fraction", "value": 16.8}, {"measurement": "KEGG pathway Ribosome biogenesis in eukaryotes, summed fold-changes", "setting": "SW480 cancer cells; NE fraction", "value": 28.9}, {"measurement": "N° proteins down-regulated, CYT", "setting": "SW480 cancer cells; [2]", "value": 8}, {"measurement": "N° proteins upregulated, CYT", "setting": "SW480 cancer cells; [2]", "value": 8}, {"measurement": "N° proteins down-regulated, NE", "setting": "SW480 cancer cells; [3]", "value": 772}, {"measurement": "N° proteins upregulated, NE", "setting": "SW480 cancer cells; [3]", "value": 710}, {"measurement": "regulated proteins in CYT", "setting": "SW480 cancer cells; up- and down-regulated", "value": 16}, {"measurement": "intact complex, UV-vis, 24 h", "setting": "[1]; 24 h", "value": 76, "unit": "%"}, {"measurement": "intact complex, UV-vis, 96 h", "setting": "[1]; 96 h", "value": 64, "unit": "%"}]}
